Measurements from patent publication US20040156869A1, “2-substituted quinazolin-4-ylamine analogues” (Neurogen Corporation, priority 2002, published 2004).

target: human capsaicin receptor (VR1) (Homo sapiens, UniProt Q8NER1); experiment: Capsaicin receptor binding assay ([3H]RTX competition, VR1-transfected HEK293 membranes)
Sequence (Q8NER1 whole entry): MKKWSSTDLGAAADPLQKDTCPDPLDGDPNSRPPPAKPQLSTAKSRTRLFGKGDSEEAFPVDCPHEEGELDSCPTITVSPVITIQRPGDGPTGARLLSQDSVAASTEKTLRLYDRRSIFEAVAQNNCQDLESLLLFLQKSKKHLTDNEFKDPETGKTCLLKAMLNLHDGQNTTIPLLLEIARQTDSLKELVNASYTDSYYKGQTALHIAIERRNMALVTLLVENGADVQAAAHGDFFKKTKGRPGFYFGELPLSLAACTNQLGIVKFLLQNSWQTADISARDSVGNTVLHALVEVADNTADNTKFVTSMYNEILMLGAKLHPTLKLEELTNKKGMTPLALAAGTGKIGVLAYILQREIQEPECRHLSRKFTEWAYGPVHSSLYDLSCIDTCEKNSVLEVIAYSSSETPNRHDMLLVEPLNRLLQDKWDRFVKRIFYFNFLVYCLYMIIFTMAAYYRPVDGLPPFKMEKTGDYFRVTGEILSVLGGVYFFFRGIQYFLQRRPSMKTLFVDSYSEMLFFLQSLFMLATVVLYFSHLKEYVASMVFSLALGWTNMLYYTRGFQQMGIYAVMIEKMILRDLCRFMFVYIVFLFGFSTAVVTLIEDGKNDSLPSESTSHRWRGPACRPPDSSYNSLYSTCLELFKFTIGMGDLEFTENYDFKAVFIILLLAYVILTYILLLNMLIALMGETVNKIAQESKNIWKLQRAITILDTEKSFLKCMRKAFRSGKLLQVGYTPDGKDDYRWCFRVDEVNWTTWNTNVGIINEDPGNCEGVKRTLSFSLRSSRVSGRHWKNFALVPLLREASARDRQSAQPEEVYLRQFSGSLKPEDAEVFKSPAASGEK

Row | Compound | Ki [nM]
1 | COCc1nc(Nc2ccc(S(=O)(=O)C(F)(F)F)cc2)c2ccc(-c3ncccc3C)nc2n1 [Compound 159, [2-Methoxymethyl-7-(3-methyl-pyridin-2-yl)-pyrido[2,3-d]pyrimidin-4-yl]-(4-trifluoromethanesulfonyl-phenyl)-amine] | < 1000
2 | COCc1nc(Nc2ccc(C3(C(=O)N4C[C@@H](C)O[C@@H](C)C4)CCC3)cc2)c2ccc(-c3ncccc3C(F)(F)F)nc2n1 [Compound 160, (2,6-Dimethyl-morpholin-4-yl)-(1-{4-[2-methoxymethyl-7-(3-trifluoromethyl-pyridin-2-yl)-pyrido[2,3-d]pyrimidin-4-ylamino]-phenyl}-cyclobutyl)-methanone] | < 1000
3 | Cc1cccnc1-c1ccc2c(Nc3ccc(C(C)(C)C#N)cc3)nc(COCC(C)C)nc2n1 [Compound 161, 2-{4-[2-Isobutoxymethyl-7-(3-methyl-pyridin-2-yl)-pyrido[2,3-d]pyrimidin-4-ylamino]-phenyl}-2-methyl-propionitrile] | < 1000
4 | CC(C)COCc1nc(Nc2ccc(C(C)(C)C)cc2)c2ccc(-c3ncccc3C(F)(F)F)nc2n1 [Compound 162, (4-terr-Butyl-phenyl)-[2-isobutoxymethyl-7-(3-trifluoromethyl-pyridin-2-yl)-pyrido[2,3-d]pyrimidin-4-yl]-amine] | < 1000
5 | CC(C)COCc1nc(Nc2ccc(C(C)C)cc2)c2ccc(-c3ncccc3C(F)(F)F)nc2n1 [Compound 163, [2-Isobutoxymethyl-7-(3-trifluoromethyl-pyridin-2-yl)-pyrido[2,3-d]pyrimidin-4-yl]-(4-isopropyl-phenyl)-amine] | < 1000
6 | CC(C)COCc1nc(Nc2ccc(C(F)(F)F)cc2)c2ccc(-c3ncccc3C(F)(F)F)nc2n1 [Compound 164, [2-Isobutoxymethyl-7-(3-trifluoromethyl-pyridin-2-yl)-pyrido[2,3-d]pyrimidin-4-yl]-(4-trifluoromethyl-phenyl)-amine] | < 1000
7 | CC(C)COCc1nc(Nc2ccc(C(F)(F)F)nc2)c2ccc(-c3ncccc3C(F)(F)F)nc2n1 [Compound 165, [2-Isobutoxymethyl-7-(3-trifluoromethyl-pyridin-2-yl)-pyrido[2,3-d]pyrimidin-4-yl]-(6-trifluoromethyl-pyridin-3-yl)-amine] | < 1000
8 | Cc1cc(Nc2nc(COCC(C)C)nc3nc(-c4ncccc4C(F)(F)F)ccc23)ccc1C(F)(F)F [Compound 166, [2-Isobutoxymethyl-7-(3-trifluoromethyl-pyridin-2-yl)-pyrido[2,3-d]pyrimidin-4-yl]-(3-methyl-4-trifluoromethyl-phenyl)-amine] | < 1000
9 | CC(C)COCc1nc(Nc2ccc(C(C)(C)C#N)cc2)c2ccc(-c3ncccc3C(F)(F)F)nc2n1 [Compound 167, 2-{4-[2-Isobutoxymethyl-7-(3-trifluoromethyl-pyridin-2-yl)-pyrido[2,3-d]pyrimidin-4-ylamino]-phenyl}-2-methyl-propionitrile] | < 1000
10 | CC(C)COCc1nc(Nc2ccc(S(=O)(=O)C(F)(F)F)cc2)c2ccc(-c3ncccc3C(F)(F)F)nc2n1 [Compound 168, [2-Isobutoxymethyl-7-(3-trifluoromethyl-pyridin-2-yl)-pyrido[2,3-d]pyrimidin-4-yl]-(4-trifluoromethanesulfonyl-phenyl)-amine] | < 1000
11 | CCOC(=O)COCc1nc(Nc2ccc(C(F)(F)F)cc2)c2ccc(-c3ncccc3C(F)(F)F)cc2n1 [Compound 169, [4-(4-Trifluoromethyl-phenylamino)-7-(3-trifluoromethyl-pyridin-2-yl)-quinazolin-2-ylmethoxy]-acetic acid ethyl ester] | < 1000
12 | OCc1nc(Nc2ccc(C(F)(F)F)cc2)c2ccc(-c3ncccc3C(F)(F)F)nc2n1 [Compound 171, [4-(4-Trifluoromethyl-phenylamino)-7-(3-trifluoromethyl-pyridin-2-yl)-pyrido[2,3-d]pyrimidin-2-yl]-methanol] | < 1000
13 | CCOC(=O)c1nc(Nc2ccc(C(F)(F)F)cc2)c2ccc(-c3ncccc3C)nc2n1 [Compound 172, 7-(3-Methyl-pyridin-2-yl)-4-(4-trifluoromethyl-phenylamino)-pyrido[2,3-d]pyrimidine-2-carboxylic acid ethyl ester] | < 1000
14 | CCOC(=O)c1nc(Nc2ccc(C(F)(F)F)cc2)c2ccc(-c3ncccc3C(F)(F)F)nc2n1 [Compound 173, 4-(4-Trifluoromethyl-phenylamino)-7-(3-trifluoromethyl-pyridin-2-yl)-pyrido[2,3-d]pyrimidine-2-carboxylic acid ethyl ester] | < 1000
15 | Cc1cccnc1-c1ccc2c(Nc3ccc(C(F)(F)F)cc3)nc(C3CCOC3)nc2n1 (centres unmarked) [Compound 174, [7-(3-Methyl-pyridin-2-yl)-2-(tetrahydro-furan-3-yl)-pyrido[2,3-d]pyrimidin-4-yl]-(4-trifluoromethyl-phenyl)-amine] | < 1000
16 | Cc1cccnc1-c1ccc2c(Nc3ccc(C(C)(C)C#N)cc3)nc(C3CCOC3)nc2n1 (centres unmarked) [Compound 175, 2-Methyl-2-{4-[7-(3-methyl-pyridin-2-yl)-2-(tetrahydro-furan-3-yl)-pyrido[2,3-d]pyrimidin-4-ylamino]-phenyl}-propionitrile] | < 1000

Row | Compound | Ki [nM]
17 | CC(C)COCc1nc(Nc2ccc(C(F)(F)F)cc2)c2ccc(-c3ncccc3Cl)nc2n1 [Compound 176, [7-(3-Chloro-pyridin-2-yl)-2-isobutoxymethyl-pyrido[2,3-d]pyrimidin-4-yl]-(4-trifluoromethyl-phenyl)-amine] | < 1000
18 | CC(C)COCc1nc(Nc2ccc(C(F)(F)F)nc2)c2ccc(-c3ncccc3Cl)nc2n1 [Compound 177, [7-(3-Chloro-pyridin-2-yl)-2-isobutoxymethyl-pyrido[2,3-d]pyrimidin-4-yl]-(6-trifluoromethyl-pyridin-3-yl)-amine] | < 1000
19 | Cc1cc(Nc2nc(COCC(C)C)nc3nc(-c4ncccc4Cl)ccc23)ccc1C(F)(F)F [Compound 178, [7-(3-Chloro-pyridin-2-yl)-2-isobutoxymethyl-pyrido[2,3-d]pyrimidin-4-yl]-(3-methyl-4-trifluoromethyl-phenyl)-amine] | < 1000
20 | CC(C)COCc1nc(Nc2ccc(C(C)(C)C#N)cc2)c2ccc(-c3ncccc3Cl)nc2n1 [Compound 179, 2-{4-[7-(3-Chloro-pyridin-2-yl)-2-isobutoxymethyl-pyrido[2,3-d]pyrimidin-4-ylamino]-phenyl}-2-methyl-propionitrile] | < 1000
21 | CC(C)COCc1nc(Nc2ccc(OC(F)(F)F)cc2)c2ccc(-c3ncccc3Cl)nc2n1 [Compound 180, [7-(3-Chloro-pyridin-2-yl)-2-isobutoxymethyl-pyrido[2,3-d]pyrimidin-4-yl]-(4-trifluoromethoxy-phenyl)-amine] | < 1000
22 | CC(C)COCc1nc(Nc2ccc(S(=O)(=O)C(F)(F)F)cc2)c2ccc(-c3ncccc3Cl)nc2n1 [Compound 181, [7-(3-Chloro-pyridin-2-yl)-2-isobutoxymethyl-pyrido[2,3-d]pyrimidin-4-yl]-(4-trifluoromethanesulfonyl-phenyl)-amine] | < 1000
23 | COCc1nc(Nc2ccc(C(F)(F)F)c(C)c2)c2ccc(-c3ncccc3C(F)(F)F)nc2n1 [Compound 182, [2-Methoxymethyl-7-(3-trifluoromethyl-pyridin-2-yl)-pyrido[2,3-d]pyrimidin-4-yl]-(3-methyl-4-trifluoromethyl-phenyl)-amine] | < 1000
24 | Cc1cc(Nc2nc(COCC(C)C)nc3nc(-c4ncccc4C)ccc23)ccc1C(F)(F)F [Compound 183, [2-Isobutoxymethyl-7-(3-methyl-pyridin-2-yl)-pyrido[2,3-d]pyrimidin-4-yl]-(3-methyl-4-trifluoromethyl-phenyl)-amine] | < 1000
25 | CCOCc1nc(Nc2ccc(C(F)(F)F)c(C)c2)c2ccc(-c3ncccc3Cl)nc2n1 [Compound 184, [7-(3-Chloro-pyridin-2-yl)-2-ethoxymethyl-pyrido[2,3-d]pyrimidin-4-yl]-(3-methyl-4-trifluoromethyl-phenyl)-amine] | < 1000
26 | CCOC(=O)c1nc(Nc2ccc(C(C)(C)C)cc2)c2ccc(-c3ncccc3C)nc2n1 [Compound 185, 4-(4-tert-Butyl-phenylamino)-7-(3-methyl-pyridin-2-yl)-pyrido[2,3-d]pyrimidine-2-carboxylic acid ethyl ester] | < 1000
27 | O=S(=O)(c1ccc(Nc2nc(CO)nc3cc(-c4ncccc4C(F)(F)F)ccc23)cc1)N1CCCCC1 [Compound 186, [4-[4-(Piperidine-1-sulfonyl)-phenylamino]-7-(3-trifluoromethyl-pyridin-2-yl)-quinazolin-2-yl]-methanol] | < 1000
28 | CN(C(C)(C)C)S(=O)(=O)c1ccc(Nc2nc(CO)nc3cc(-c4ncccc4C(F)(F)F)ccc23)cc1 [Compound 187, N-tert-Butyl-4-[2-hydroxymethyl-7-(3-trifluoromethyl-pyridin-2-yl)-quinazolin-4-ylamino]-N-methyl-benzenesulfonamide] | < 1000
29 | COCc1nc(Nc2ccc(OC(F)(F)F)cc2)c2ccc(-c3ncccc3C(F)(F)F)nc2n1 [Compound 188, [2-Methoxymethyl-7-(3-trifluoromethyl-pyridin-2-yl)-pyrido[2,3-d]pyrimidin-4-yl]-(4-trifluoromethoxy-phenyl)-amine] | < 1000
30 | CC(C)COCc1nc(Nc2ccc(OC(F)(F)F)cc2)c2ccc(-c3ncccc3C(F)(F)F)nc2n1 [Compound 189, [2-Isobutoxymethyl-7-(3-trifluoromethyl-pyridin-2-yl)-pyrido[2,3-d]pyrimidin-4-yl]-(4-trifluoromethoxy-phenyl)-amine] | < 1000
31 | Cc1cccnc1-c1ccc2c(Nc3ccc(OC(F)(F)F)cc3)nc(COCC(C)C)nc2n1 [Compound 190, [2-Isobutoxymethyl-7-(3-methyl-pyridin-2-yl)-pyrido[2,3-d]pyrimidin-4-yl]-(4-trifluoromethoxy-phenyl)-amine] | < 1000
32 | COCc1nc(Nc2ccc(C(C)(C)C)nc2)c2ccc(-c3ncccc3C(F)(F)F)nc2n1 [Compound 191, (6-tert-Butyl-pyridin-3-yl)-[2-methoxymethyl-7-(3-trifluoromethyl-pyridin-2-yl)-pyrido[2,3-d]pyrimidin-4-yl]-amine] | < 1000
